Data from US20080051429A1, “USE OF 4-AMINO-PIPERIDINES FOR TREATING SLEEP DISORDERS” (priority 2006, published 2008).

Assays:
Experiment in all cases: R-SAT broad profiling
Assay type in all cases: cell-based
alpha 2A = molecular target: T1, alpha 2A (Homo sapiens, UniProt P08913); conditions: agonist; read-out: pEC50 or pIC50 (converted)
T1 construct: expressed in transfected cells; host or cells: NIH3T3
T1 sequence (P08913 1-465): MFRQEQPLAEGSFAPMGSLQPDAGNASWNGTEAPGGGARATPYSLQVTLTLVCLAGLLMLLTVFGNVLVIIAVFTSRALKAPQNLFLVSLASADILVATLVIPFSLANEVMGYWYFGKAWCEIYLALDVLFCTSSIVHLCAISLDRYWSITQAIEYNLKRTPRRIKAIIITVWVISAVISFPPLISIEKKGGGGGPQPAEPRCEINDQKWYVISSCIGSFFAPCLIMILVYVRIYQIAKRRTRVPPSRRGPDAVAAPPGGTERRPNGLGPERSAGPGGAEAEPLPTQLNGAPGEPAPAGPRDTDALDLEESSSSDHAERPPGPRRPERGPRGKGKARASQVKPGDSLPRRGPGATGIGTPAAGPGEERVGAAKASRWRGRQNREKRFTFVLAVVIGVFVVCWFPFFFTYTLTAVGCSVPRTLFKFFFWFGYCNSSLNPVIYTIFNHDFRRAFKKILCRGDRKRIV
Method: (§1) The functional receptor assay, Receptor Selection and Amplification Technology (R-SAT), was used (with minor modifications from that previously described U.S. Pat. No. 5,707,798) to screen compounds for efficacy at the 5-HT2A receptor. Briefly, NIH3T3 cells were grown in 96 well tissue culture plates to 70-80% confluence. Cells were transfected for 12-16 hours with plasmid DNAs using superfect (Qiagen Inc.) as per manufacture's protocols. R-SAT's were generally performed with 50 ng/well of receptor and 20 ng/well of Beta-galactosidase plasmid DNA. All receptor and G-protein constructs used were in the pSI mammalian expression vector (Promega Inc) as described in U.S. Pat. No. 5,707,798. The 5HT2A receptor gene was amplified by nested PCR from brain cDNA using the oligodeoxynucleotides based on the published sequence (see Saltzman et. al. Biochem. Biophys. Res. Comm. 181:1469-78 (1991)). Large-scale transfections, cells were transfected for 12-16 hours, then trypsinized and frozen in DMSO. Frozen cells were later thawed, plated at 10,000-40,000 cells per well of a 96 well plate that contained drug. With both methods, cells were then grown in a humidified atmosphere with 5% ambient CO2 for five days. Media was then removed from the plates and marker gene activity was measured by the addition of the beta-galactosidase substrate ONPG (in PBS with 5% NP-40). The resulting colorimetric reaction was measured in a spectrophotometric plate reader (Titertek Inc.)at […]. All data were analyzed using the computer program XLFit (IDBSm). Efficacy is the percent maximal repression compared to repression by a control compound (ritanserin in the case of 5HT2A). pIC50 is the negative of the log(IC50), where IC50 is the calculated concentration in Molar that produces 50% maximal repression.
(§2) The R-SAT assay (described above in example 289) was used to investigate the selectivity of 4-(4-Fluoro-benzyl)-3-(4-isobutoxy-benzyl)-8-methyl-1-oxa-3,8-diaza-spiro[4.5]decan-2-one.

alpha 2C = molecular target: T2, alpha 2C (Homo sapiens, UniProt P18825); conditions: read-out: pEC50 or pIC50 (converted)
T2 construct: expressed in transfected cells; host or cells: NIH3T3
T2 sequence (P18825 1-462): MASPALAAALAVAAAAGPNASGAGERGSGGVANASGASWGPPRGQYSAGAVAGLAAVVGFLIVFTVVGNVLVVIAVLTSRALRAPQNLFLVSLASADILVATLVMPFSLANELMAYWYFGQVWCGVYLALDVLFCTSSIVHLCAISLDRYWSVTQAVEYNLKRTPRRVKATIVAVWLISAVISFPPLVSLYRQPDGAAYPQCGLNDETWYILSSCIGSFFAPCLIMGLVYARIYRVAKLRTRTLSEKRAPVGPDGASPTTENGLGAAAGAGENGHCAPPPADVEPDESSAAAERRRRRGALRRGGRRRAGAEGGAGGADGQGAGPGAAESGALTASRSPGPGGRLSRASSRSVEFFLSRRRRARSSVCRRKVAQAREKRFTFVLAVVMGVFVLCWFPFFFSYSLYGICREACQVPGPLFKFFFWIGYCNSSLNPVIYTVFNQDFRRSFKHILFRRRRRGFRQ
Method: as §1, §2

5HT7A = molecular target: T3, 5HT7A (Homo sapiens, UniProt P34969); conditions: read-out: pEC50 or pIC50 (converted)
T3 construct: expressed in transfected cells; host or cells: NIH3T3
T3 sequence (P34969 1-445 isoform P34969-2): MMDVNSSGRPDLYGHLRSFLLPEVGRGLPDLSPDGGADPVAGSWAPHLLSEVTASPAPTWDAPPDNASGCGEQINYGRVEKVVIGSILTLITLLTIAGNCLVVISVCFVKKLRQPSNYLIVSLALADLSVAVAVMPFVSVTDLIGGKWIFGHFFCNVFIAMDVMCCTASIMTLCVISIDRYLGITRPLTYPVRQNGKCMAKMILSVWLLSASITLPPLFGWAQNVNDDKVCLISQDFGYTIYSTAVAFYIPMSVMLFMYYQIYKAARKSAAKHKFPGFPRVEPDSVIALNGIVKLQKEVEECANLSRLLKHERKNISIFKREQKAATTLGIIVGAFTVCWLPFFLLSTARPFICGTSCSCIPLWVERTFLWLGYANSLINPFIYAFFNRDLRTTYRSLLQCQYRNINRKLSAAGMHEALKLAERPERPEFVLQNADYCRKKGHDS
Method: as §1, §2

m3 = molecular target: T4, m3 (Homo sapiens, UniProt P20309); conditions: read-out: pEC50 or pIC50 (converted)
T4 construct: expressed in transfected cells; host or cells: NIH3T3
T4 sequence (P20309 whole entry): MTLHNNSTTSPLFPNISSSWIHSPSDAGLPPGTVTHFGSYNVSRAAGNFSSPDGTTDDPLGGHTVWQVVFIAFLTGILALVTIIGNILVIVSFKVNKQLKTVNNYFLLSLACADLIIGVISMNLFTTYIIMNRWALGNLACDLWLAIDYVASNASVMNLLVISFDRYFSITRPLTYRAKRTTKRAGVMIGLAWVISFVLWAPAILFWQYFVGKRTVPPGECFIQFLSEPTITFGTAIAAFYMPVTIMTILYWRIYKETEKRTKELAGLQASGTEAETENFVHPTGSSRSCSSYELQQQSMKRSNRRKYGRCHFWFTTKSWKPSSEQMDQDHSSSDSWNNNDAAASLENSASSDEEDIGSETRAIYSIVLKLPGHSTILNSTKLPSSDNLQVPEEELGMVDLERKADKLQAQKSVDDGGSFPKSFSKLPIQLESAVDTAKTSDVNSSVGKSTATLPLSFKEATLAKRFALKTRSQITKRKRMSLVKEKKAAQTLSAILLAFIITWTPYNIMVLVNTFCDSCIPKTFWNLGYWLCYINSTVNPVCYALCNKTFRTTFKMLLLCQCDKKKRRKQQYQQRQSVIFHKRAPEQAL
Method: as §1, §2

5HT6A = molecular target: T5, 5HT6A (Homo sapiens, UniProt P50406); conditions: inverse; read-out: pEC50 or pIC50 (converted)
T5 construct: expressed in transfected cells; host or cells: NIH3T3
T5 sequence (P50406 whole entry): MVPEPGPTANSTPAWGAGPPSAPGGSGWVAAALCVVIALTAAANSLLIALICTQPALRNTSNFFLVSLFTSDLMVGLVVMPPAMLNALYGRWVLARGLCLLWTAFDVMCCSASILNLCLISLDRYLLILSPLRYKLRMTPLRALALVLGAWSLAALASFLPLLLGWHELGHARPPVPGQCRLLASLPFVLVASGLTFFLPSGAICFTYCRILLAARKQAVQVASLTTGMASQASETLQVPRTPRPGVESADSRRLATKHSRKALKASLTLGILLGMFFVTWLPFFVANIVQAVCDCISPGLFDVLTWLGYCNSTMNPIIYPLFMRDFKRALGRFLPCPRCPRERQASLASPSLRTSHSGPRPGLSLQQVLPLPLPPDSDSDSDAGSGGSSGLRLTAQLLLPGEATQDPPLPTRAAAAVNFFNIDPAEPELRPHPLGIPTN
Method: as §1, §2

D3 = molecular target: T6, D3 (Homo sapiens, UniProt P35462); conditions: read-out: pEC50 or pIC50 (converted)
T6 construct: expressed in transfected cells; host or cells: NIH3T3
T6 sequence (P35462 whole entry): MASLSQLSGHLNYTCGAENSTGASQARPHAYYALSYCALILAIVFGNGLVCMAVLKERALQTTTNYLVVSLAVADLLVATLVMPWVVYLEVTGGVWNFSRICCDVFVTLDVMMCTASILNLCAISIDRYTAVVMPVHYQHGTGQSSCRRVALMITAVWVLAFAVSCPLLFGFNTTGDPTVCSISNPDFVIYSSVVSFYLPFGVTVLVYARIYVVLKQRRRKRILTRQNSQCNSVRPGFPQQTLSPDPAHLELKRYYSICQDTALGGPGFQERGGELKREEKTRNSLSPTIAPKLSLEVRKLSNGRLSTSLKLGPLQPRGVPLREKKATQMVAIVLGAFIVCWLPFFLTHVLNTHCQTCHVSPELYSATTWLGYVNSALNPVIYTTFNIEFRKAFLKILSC
Method: as §1, §2

alpha 2B = molecular target: T7, alpha 2B (Homo sapiens, UniProt P18089); conditions: read-out: pEC50 or pIC50 (converted)
T7 construct: expressed in transfected cells; host or cells: NIH3T3
T7 sequence (P18089 1-450): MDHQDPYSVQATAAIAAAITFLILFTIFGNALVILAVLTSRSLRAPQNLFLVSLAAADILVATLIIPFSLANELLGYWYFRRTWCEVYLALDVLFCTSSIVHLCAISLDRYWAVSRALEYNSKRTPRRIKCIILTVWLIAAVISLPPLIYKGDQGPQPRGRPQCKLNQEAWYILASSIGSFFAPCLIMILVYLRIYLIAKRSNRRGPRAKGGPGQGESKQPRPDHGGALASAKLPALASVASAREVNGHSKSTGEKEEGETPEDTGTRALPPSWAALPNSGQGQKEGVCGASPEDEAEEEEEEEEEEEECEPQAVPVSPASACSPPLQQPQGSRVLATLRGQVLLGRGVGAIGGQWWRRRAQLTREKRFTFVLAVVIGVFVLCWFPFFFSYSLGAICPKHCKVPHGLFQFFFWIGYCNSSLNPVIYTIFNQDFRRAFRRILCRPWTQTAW
Method: as §1, §2

CC(C)COc1ccc(CN2C(=O)OC3(CCN(C)CC3)C2Cc2ccc(F)cc2)cc1.Cl (racemic) [Example 69NLS75, 4-(4-Fluorobenzyl)-3-(4-isobutoxybenzyl)-8-methyl-1-oxa-3,8-diazaspiro[4.5]decan-2-one, hydrochloride]
> 3.16 µM: EC50 (alpha 2A) | EC50 (alpha 2C; agonist) | IC50 (alpha 2C; antagonist) | EC50 (5HT7A; agonist) | IC50 (5HT7A; inverse) | EC50 (m3; agonist) | IC50 (m3; inverse) | IC50 (5HT6A) | EC50 (D3; agonist) | IC50 (D3; antagonist) | EC50 (alpha 2B; agonist) | IC50 (alpha 2B; antagonist)
